Measured values reported in ChEMBL document CHEMBL2407043, “Hydantoin based inhibitors of MMP13--discovery of AZD6605” (Bioorg Med Chem Lett, 2013).
≈ marks a conversion by molar mass, not a printed value.

Legend:
[1] = species: Rattus norvegicus; experiment: Toxicity in rat assessed as change in connective tissue after 28 days; assay type: organism-based; settings: in vivo, 672 h
[2] = Apparent permeability across basolateral to apical side in human Caco2 cells at 10 uM; assay type: ADME, cell-based; settings: Caco-2
[3] = in vitro; settings: human, Caco-2
[4] = Oral bioavailability in dog at 1 mg/kg; assay type: ADME, organism-based, Canis lupus familiaris; settings: in vivo
[5] = Clearance in dog at 0.5 mg/kg, iv and 1 mg/kg, po; assay type: ADME, organism-based, Canis lupus familiaris; settings: in vivo
[6] = tested on: Salmonella typhimurium; experiment: Mutagenic activity in Salmonella typhimurium by Ames assay; assay type: toxicity, organism-based; settings: salmonella enterica subsp. enterica serovar typhimurium
[7] = Volume of distribution at steady state in rat at 2 mg/kg, iv and 5 mg/kg, po; assay type: ADME, organism-based; settings: in vivo, read-out: Vdss
[8] = target: Matrix metalloproteinase-14 (Homo sapiens, UniProt P50281)
[9] = Genotoxicity in mouse lymphoma cells; assay type: toxicity, cell-based
[10] = target: Cytochrome P450 2C19 (Homo sapiens, UniProt P33261); experiment: Inhibition of human CYP2C19; assay type: ADME
Cytochrome P450 2C19, sequence (P33261 whole entry): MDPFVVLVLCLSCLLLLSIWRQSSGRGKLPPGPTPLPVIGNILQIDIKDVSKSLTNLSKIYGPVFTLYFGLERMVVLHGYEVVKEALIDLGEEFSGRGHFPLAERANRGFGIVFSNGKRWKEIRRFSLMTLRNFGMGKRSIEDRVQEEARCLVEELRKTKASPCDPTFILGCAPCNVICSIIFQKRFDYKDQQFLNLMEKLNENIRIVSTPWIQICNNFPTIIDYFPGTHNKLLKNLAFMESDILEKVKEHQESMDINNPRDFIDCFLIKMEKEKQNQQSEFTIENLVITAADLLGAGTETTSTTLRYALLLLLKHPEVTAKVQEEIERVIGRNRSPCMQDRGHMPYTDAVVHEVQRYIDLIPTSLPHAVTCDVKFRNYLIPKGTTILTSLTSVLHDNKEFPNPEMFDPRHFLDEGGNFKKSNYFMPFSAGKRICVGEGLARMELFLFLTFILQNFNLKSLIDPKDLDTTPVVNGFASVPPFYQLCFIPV

[11] = physchem; settings: buffer, pH 7.4
[12] = target: T1, Cytochrome P450 1A2 (Homo sapiens, UniProt P05177); experiment: Inhibition of human CYP1A2; assay type: ADME
T1 sequence (P05177 whole entry): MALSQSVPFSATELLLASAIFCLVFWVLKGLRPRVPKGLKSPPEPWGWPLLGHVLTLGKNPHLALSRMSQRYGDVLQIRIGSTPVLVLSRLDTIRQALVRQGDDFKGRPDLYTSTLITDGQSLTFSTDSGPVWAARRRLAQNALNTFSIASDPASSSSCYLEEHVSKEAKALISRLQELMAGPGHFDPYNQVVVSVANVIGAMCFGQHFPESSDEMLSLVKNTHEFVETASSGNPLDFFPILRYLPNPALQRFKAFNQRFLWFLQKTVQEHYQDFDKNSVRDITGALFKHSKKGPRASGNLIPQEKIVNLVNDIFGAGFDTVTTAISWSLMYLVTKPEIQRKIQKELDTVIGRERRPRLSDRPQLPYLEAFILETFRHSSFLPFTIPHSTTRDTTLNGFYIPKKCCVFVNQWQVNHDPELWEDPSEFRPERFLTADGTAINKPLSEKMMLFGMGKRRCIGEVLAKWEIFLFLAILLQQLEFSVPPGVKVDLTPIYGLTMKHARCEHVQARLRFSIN

[13] = Fraction unbound in rat plasma; assay type: ADME, cell-free
[14] = species: Rattus norvegicus; experiment: Toxicity in rat assessed as fibrodysplasia after 28 days; assay type: organism-based; settings: in vivo, 672 h
[15] = Half life in rat at 2 mg/kg, iv and 5 mg/kg, po; assay type: ADME, organism-based; settings: in vivo
[16] = in vitro; settings: human, liver microsomes
[17] = Intrinsic clearance in human hepatocytes measured per 10^6 cells; assay type: ADME, cell-based, Hepatocyte; settings: read-out: CLH
[18] = species: Rattus norvegicus; experiment: Toxicity in rat assessed as change in body weight after 28 days; assay type: organism-based; settings: in vivo, 672 h
[19] = species: Rattus norvegicus; experiment: Toxicity in rat assessed as change in clinical chemistry or hematological parameters after 28 days; assay type: organism-based; settings: in vivo, 672 h
[20] = Fraction unbound in human plasma; assay type: ADME, cell-free
[21] = target: Cytochrome P450 3A4 (Homo sapiens, UniProt P08684); experiment: Inhibition of human CYP3A4; assay type: ADME
Cytochrome P450 3A4, sequence (P08684 whole entry): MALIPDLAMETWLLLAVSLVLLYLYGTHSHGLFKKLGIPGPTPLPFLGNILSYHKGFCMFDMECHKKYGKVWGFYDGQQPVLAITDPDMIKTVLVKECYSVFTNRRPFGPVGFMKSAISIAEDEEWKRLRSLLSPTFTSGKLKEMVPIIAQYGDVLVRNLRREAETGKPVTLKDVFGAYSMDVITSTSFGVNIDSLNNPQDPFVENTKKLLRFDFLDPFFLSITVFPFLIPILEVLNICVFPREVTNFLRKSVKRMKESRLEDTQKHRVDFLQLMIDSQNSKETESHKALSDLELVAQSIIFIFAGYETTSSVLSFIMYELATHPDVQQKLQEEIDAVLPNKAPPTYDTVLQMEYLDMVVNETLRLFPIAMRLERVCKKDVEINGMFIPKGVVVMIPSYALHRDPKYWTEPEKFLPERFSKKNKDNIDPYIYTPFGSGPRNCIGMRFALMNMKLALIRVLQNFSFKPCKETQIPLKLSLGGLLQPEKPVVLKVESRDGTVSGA

[22] = target: Cytochrome P450 2D6 (Homo sapiens, UniProt P10635); experiment: Inhibition of human CYP2D6; assay type: ADME
Cytochrome P450 2D6, sequence (P10635 whole entry): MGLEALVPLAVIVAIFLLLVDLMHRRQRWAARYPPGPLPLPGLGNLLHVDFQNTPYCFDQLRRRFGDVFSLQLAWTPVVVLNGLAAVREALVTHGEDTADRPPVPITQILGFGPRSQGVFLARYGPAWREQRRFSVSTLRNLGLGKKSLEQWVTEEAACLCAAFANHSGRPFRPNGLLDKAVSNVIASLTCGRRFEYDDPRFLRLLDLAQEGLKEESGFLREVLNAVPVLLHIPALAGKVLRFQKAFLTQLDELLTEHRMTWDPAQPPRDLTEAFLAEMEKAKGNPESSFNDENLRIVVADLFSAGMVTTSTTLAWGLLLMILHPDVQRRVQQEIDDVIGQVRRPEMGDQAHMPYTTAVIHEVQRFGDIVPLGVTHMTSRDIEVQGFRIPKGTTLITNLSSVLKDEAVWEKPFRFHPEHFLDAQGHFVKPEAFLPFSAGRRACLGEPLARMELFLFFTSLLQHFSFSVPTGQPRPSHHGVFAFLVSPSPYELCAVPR

[23] = species: Cavia porcellus; experiment: animal or person; settings: Dunkin Hartley, sc, 2016 h, read-out: INH
[24] = Half life in dog at 0.5 mg/kg, iv and 1 mg/kg, po; assay type: ADME, organism-based, Canis lupus familiaris; settings: in vivo
[25] = Fraction unbound in dog plasma; assay type: ADME, cell-free, Canis lupus familiaris
[26] = target: Cytochrome P450 2C9 (Homo sapiens, UniProt P11712); experiment: Inhibition of human CYP2C9; assay type: ADME
Cytochrome P450 2C9, sequence (P11712 whole entry): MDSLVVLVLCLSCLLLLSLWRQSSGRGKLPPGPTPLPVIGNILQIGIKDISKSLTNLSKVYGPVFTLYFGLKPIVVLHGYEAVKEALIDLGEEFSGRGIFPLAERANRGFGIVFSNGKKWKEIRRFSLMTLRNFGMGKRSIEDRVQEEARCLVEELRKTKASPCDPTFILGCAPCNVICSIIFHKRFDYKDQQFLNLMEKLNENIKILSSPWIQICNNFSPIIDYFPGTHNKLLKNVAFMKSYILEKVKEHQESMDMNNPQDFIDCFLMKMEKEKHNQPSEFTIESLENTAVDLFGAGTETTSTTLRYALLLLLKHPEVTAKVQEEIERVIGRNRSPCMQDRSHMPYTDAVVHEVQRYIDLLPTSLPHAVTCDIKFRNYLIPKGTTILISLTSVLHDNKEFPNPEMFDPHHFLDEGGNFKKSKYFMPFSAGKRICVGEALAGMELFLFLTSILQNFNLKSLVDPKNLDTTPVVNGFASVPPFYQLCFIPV

[27] = Solubility of compound in fasted state simulated intestinal fluid; assay type: physicochemical
[28] = Volume of distribution at steady state in dog at 0.5 mg/kg, iv and 1 mg/kg, po; assay type: ADME, organism-based, Canis lupus familiaris; settings: in vivo, read-out: Vdss
[29] = Oral bioavailability in rat at 5 mg/kg; assay type: ADME, organism-based; settings: in vivo
[30] = Clearance in rat at 2 mg/kg, iv and 5 mg/kg, po; assay type: ADME, organism-based; settings: in vivo
[31] = Thermodynamic solubility of the compound in phosphate buffer at pH 7.4 at 25 degC after 24 hrs; settings: read-out: Therm_solubility
[32] = species: Rattus norvegicus; experiment: Toxicity in rat assessed as mortality after 28 days; assay type: organism-based; settings: in vivo, 672 h
[33] = species: Rattus norvegicus; experiment: Toxicity in rat assessed as change in food and water consumption after 28 days; assay type: organism-based; settings: in vivo, 672 h

In the case of C[C@]1(CS(=O)(=O)N2CCC(Oc3ccc(OC(F)(F)C(F)F)cc3)CC2)NC(=O)NC1=O, the Activity [1] is reported as “Non-toxic”, the Papp B→A at 10 µM [2] is reported as 52 ×10⁻⁶ cm/s and the Papp A→B at 10 µM [3] is reported as 21 ×10⁻⁶ cm/s. For the same compound, the bioavailability [4] was 40%, the clearance [5] was 0.2 mL/min/kg and the Activity [6] was “Non-toxic”. The Vd [7] was 0.6 L/kg, the IC50 [8] was 2.22 µM and the Activity [9] was “Non-toxic”. It also gave an IC50 [10] greater than 10 µM, a logD [11] of 2 and an IC50 [12] greater than 10 µM. For the same compound, the fraction unbound [13] was 0.03, the Activity [14] was “Non-toxic” and the half-life [15] was 16 h. The microsomal CLint [16] was less than 2 µL/min/mg, the hepatocyte CLint [17] was less than 2 µL/min/1e6 cells and the Activity [18] was “Non-toxic”. The Activity [19] was “Non-toxic”, the fraction unbound [20] was 0.05 and the IC50 [21] was greater than 10 µM. The IC50 [22] was greater than 10 µM, the inhibition in vivo at 11 mg/kg/day [23] was 104% and the half-life [24] was 35 h. It also gave a fraction unbound [25] of 0.05, an IC50 [26] greater than 10 µM and a solubility [27] of 14.9 µM (≈ 7.2 µg/mL). It also gave a Vd [28] of 0.6 L/kg, a bioavailability [29] of 64% and a clearance [30] of 0.4 mL/min/kg. The solubility thermodynamic at 24 h [31] was 6.8 µM (≈ 3.29 µg/mL), the Activity [32] was “Non-toxic” and the Activity [33] was “Non-toxic”.
